Test results reported in patent publication US11723894B2, “Combination product for the treatment of neurological and/or psychiatric disorders” (Consejo Superior de Investigaciones Cientificas (CSIC), priority 2017, dated 2023).

Assays:
microglial cells = assay: LPS-induced nitrite production (Griess) in primary microglial cultures; assay type: cell-based, rat; details: microglia
Procedure: Example 8: DMT, DET, DPT and 5-MeO-DMT administration in vitro prevents inflammation in rat primary glial cells. […] Rat primary glial cell cultures were prepared from the cerebral cortex of 3 day old rats which were dissected, dissociated, and incubated with 0.25% trypsin/EDTA at 37° C. for 1 h. After centrifugation, the pellet was washed three times with HBSS (Gibco) and the cells were plated in poly-D-lysine (20 μg/mL) pretreated flasks (75 cm2). After 7-10 days, the flasks were agitated in an orbital shaker for 4 h at 230 rpm at 37° C. and non-adherent microglial cells were isolated and plated. Then Dulbecco's Modified Eagle's Medium (DMEM) was added to the flasks, which were agitated in a horizontal shaker at 260 rpm at 37° C. After overnight agitation, the supernatant (oligodendrocytes and some remaining microglial cells) was removed, and astrocytes (adherent cells) were collected. The purity of the cultures was >95%, as determined by immunofluorescence analysis using an anti-glial fibrillary acidic protein (GFAP; clone G-A-5; Sigma-Aldrich) antibody to identify astrocytes, and an anti-Iba1 (Wako Catalog No. 019-19741) antibody to identify microglial cells. On attaining semiconfluence, cells were administered each of the test tryptamines at 1 μM or with the combination test tryptamine+Ritanserin (Rit at 1 μM) 2 h before exposure to lipopolysaccharide (LPS, 10 μg/mL; Sigma-Aldrich) and kept in the presence of each drug or drug combination for 24 h. In combination studies, Rit was added to medium 1h before administration of the corresponding tryptamine. Vehicle-treated cultures were used as a control. After the 24 h drug exposure period, cultures were tested to assess nitrite release. To quantify nitrite concentrations in culture medium, supernatants of glial cultures were collected and mixed with an equal volume of Griess reagent (Sigma-Aldrich). Samples were then incubated at room temperature for 15 min and absorbance was measured at 540 nm on a microplate reader. Results are expressed as the mean±SEM of six replications in three different experiments

[1] = tested on: subgranular zone of the hippocampus; assay: Long-term (21 days) in vivo neurogenesis in the subgranular zone of the hippocampus (BrdU/NeuN, BrdU/DCX); set-up: species or system C57BL/6 mice
Procedure: Adult male C57BL/6 mice (obtained from Charles River Labs, Barcelona, Spain) were injected every other day for 3 weeks with DMT (0.1 μg/animal), alone or in combination with the selective Sigma-1 BD1063 antagonist (BD, 0.2 μg/animal, Sigma, Catalog number SML0276), the mixed 5-HT2A/1A receptor antagonist methiothepin (Met, 0.2 μg/animal, Sigma, Catalog number M149), or the selective 5-HT1A receptor antagonist WAY100635 (WAY, 0.2 μg/animal, ABCAM catalog number ab120550). On day 1 of treatment, animals were intraperitoneally injected with the proliferation marker 5-bromo-2-deoxyuridine (BrdU, 50 mg/kg, Sigma, Catalog number B5002) and sacrificed on day 21. Following anesthesia, the animals were perfused transcardially with 4% paraformaldehyde, and the brains obtained and post-fixed in the same solution at 4-8° C. overnight. They were subsequently cryoprotected, frozen, and finally cut into 30 μm coronal sections in a cryostat. Free-floating sections were immunostained using immunofluorescence analysis. For BrdU detection, samples were first incubated with 2 M HCl for 30 minutes at 37° C. before blocking 1 hour in PBS containing 5% normal serum, 0.1 M lysine, and 0.1% Triton X-100. Sections were then incubated with anti-BrdU mouse monoclonal antibody (DAKO, Barcelona, Spain, Catalog number M0744) combined with a neuronal marker, anti-neuN rabbit antibody (Abcam, Cambridge, UK. Catalog number ABN78) or an anti-double courtin (DCX) goat antibody (Santa Cruz Biotech. USA) at 4° C. overnight, washed three times and incubated with Alexa Fluor-488 goat anti-mouse and Alexa 647-goat anti-rabbit or -horse anti-goat secondary antibodies (Molecular Probes, Madrid, Spain), respectively, for 1 hour at room temperature. After rinses, sections were mounted with Vectashield.

CN(C)CCc1c[nH]c2ccccc12 [DMT, N,N-dimethyltryptamine]
reduction of LPS-induced nitrite in the presence of Rit (microglial cells; Rit 1 μM 1 h before tryptamine 1 μM, then LPS 10 μg/mL 24 h): maintained | LPS-induced nitrite increases (microglial cells; tryptamine 1 μM before LPS 10 μg/mL, 24 h, vs LPS alone): significantly reduced | double BrdU-NeuN stained cells (new neurons) ([1]; DMT 0.1 μg/animal every other day for 3 weeks, sacrificed day 21): increase | number of newly generated neurons as compared to basal ([1]; FIG. 6 legend, printed as after 5 days of DMT administration): doubled
